Assay results reported in the NIST ThermoML archive (doi:10.1016/j.tca.2014.07.022).

Assay: xn = mol fraction of the nth substance listed
Settings: 100 kPa, Liquid; for viscosity: Concentric cylinders viscometry; for mass density: Vibrating tube method

CC(=O)CC(C)C [4-methylpentan-2-one] + CC(C)O
Settings	mass density [kg/m3]	viscosity [mPa·s]
293.15 K, x1 = 0.067	786.4	1.722
293.15 K, x1 = 0.1344	787.5	1.361
293.15 K, x1 = 0.2044	788.6	1.141
293.15 K, x1 = 0.3035	790.2	0.962
293.15 K, x1 = 0.3848	791.4	0.856
293.15 K, x1 = 0.5098	793.4	0.737
293.15 K, x1 = 0.5987	794.7	0.691
293.15 K, x1 = 0.6986	796.3	0.651
293.15 K, x1 = 0.8138	798	0.619
293.15 K, x1 = 0.9278	799.8	0.605
293.15 K, x1 = 1	800.8	0.588
298.15 K, x1 = 0.067	782.1	1.516
298.15 K, x1 = 0.1344	783.1	1.217
298.15 K, x1 = 0.2044	784.1	1.029
298.15 K, x1 = 0.3035	785.6	0.877
298.15 K, x1 = 0.3848	786.8	0.784
298.15 K, x1 = 0.5098	788.6	0.684
298.15 K, x1 = 0.5987	790	0.64
298.15 K, x1 = 0.6986	791.5	0.608
298.15 K, x1 = 0.8138	793.2	0.581
298.15 K, x1 = 0.9278	795	0.568
298.15 K, x1 = 1	796.1	0.554
303.15 K, x1 = 0.067	777.7	1.346
303.15 K, x1 = 0.1344	778.6	1.09
303.15 K, x1 = 0.2044	779.6	0.932
303.15 K, x1 = 0.3035	781	0.8
303.15 K, x1 = 0.3848	782.2	0.725
303.15 K, x1 = 0.5098	784	0.638
303.15 K, x1 = 0.5987	785.4	0.601
303.15 K, x1 = 0.6986	786.9	0.571
303.15 K, x1 = 0.8138	788.7	0.547
303.15 K, x1 = 0.9278	790.5	0.534
303.15 K, x1 = 1	791.6	0.523
308.15 K, x1 = 0.067	773.2	1.19
308.15 K, x1 = 0.1344	774.1	0.985
308.15 K, x1 = 0.2044	775	0.849
308.15 K, x1 = 0.3035	776.4	0.736
308.15 K, x1 = 0.3848	777.5	0.669
308.15 K, x1 = 0.5098	779.3	0.594
308.15 K, x1 = 0.5987	780.7	0.562
308.15 K, x1 = 0.6986	782.2	0.536
308.15 K, x1 = 0.8138	784	0.515
308.15 K, x1 = 0.9278	785.7	0.503
308.15 K, x1 = 1	786.9	0.493
313.15 K, x1 = 0.067	768.7	1.059
313.15 K, x1 = 0.1344	769.5	0.884
313.15 K, x1 = 0.2044	770.4	0.769
313.15 K, x1 = 0.3035	771.8	0.675
313.15 K, x1 = 0.3848	772.9	0.619
313.15 K, x1 = 0.5098	774.7	0.555
313.15 K, x1 = 0.5987	776	0.528
313.15 K, x1 = 0.6986	777.5	0.505
313.15 K, x1 = 0.8138	779.3	0.486
313.15 K, x1 = 0.9278	781.1	0.473
313.15 K, x1 = 1	782.3	0.463
318.15 K, x1 = 0.067	764.1	0.949
318.15 K, x1 = 0.1344	764.8	0.799
318.15 K, x1 = 0.2044	765.7	0.695
318.15 K, x1 = 0.3035	767	0.615
318.15 K, x1 = 0.3848	768.1	0.565
318.15 K, x1 = 0.5098	769.9	0.516
318.15 K, x1 = 0.5987	771.2	0.495
318.15 K, x1 = 0.6986	772.7	0.475
318.15 K, x1 = 0.8138	774.6	0.459
318.15 K, x1 = 0.9278	776.4	0.447
318.15 K, x1 = 1	777.6	0.437
323.15 K, x1 = 0.067	759.4	0.845
323.15 K, x1 = 0.1344	760.2	0.718
323.15 K, x1 = 0.2044	761	0.629
323.15 K, x1 = 0.3035	762.3	0.56
323.15 K, x1 = 0.3848	763.4	0.52
323.15 K, x1 = 0.5098	765.2	0.48
323.15 K, x1 = 0.5987	766.5	0.462
323.15 K, x1 = 0.6986	768.1	0.448
323.15 K, x1 = 0.8138	769.9	0.435
323.15 K, x1 = 0.9278	771.8	0.422
323.15 K, x1 = 1	773	0.41
